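Following 48 hours of exposure in 96-well plates, responses at five concentrations were used to interpolate endpoints linearly. GI50 marks 50% less growth. TGI is the concentration that stops growth completely.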
Key:
Assay in all cases: NCI anticancer screen, dose series, 48 h; in the data active = GI50 below about 0.43 µM; inactive = the rest
[1] = tested on: 786-0 renal
[2] = tested on: A498 renal
[3] = tested on: A549 NSCLC
[4] = tested on: ACHN renal
[5] = tested on: BT-549 breast
[6] = tested on: CAKI-1 renal
[7] = tested on: CCRF-CEM leukemia
[8] = tested on: COLO 205 colon
[9] = tested on: DU-145 prostate
[10] = tested on: EKVX NSCLC
[11] = tested on: HCC-2998 colon
[12] = tested on: HCT-116 colon
[13] = tested on: HCT-15 colon
[14] = tested on: HL-60(TB) leukemia
[15] = tested on: HOP-62 NSCLC
[16] = tested on: HOP-92 NSCLC
[17] = tested on: HS 578T breast
[18] = tested on: HT29 colon
[19] = tested on: IGROV1 ovarian
[20] = tested on: K-562 leukemia
[21] = tested on: KM12 colon
[22] = tested on: LOX IMVI melanoma
[23] = tested on: M14 melanoma
[24] = tested on: MALME-3M melanoma
[25] = tested on: MCF7 breast
[26] = tested on: MDA-MB-231 breast
[27] = tested on: MDA-MB-435
[28] = tested on: MOLT-4 leukemia
[29] = tested on: NCI-H226 lung
[30] = tested on: NCI-H23 lung
[31] = tested on: NCI-H460 lung
[32] = tested on: NCI-H522 lung
[33] = tested on: NCI/ADR-RES ovarian
[34] = tested on: OVCAR-3 ovarian
[35] = tested on: OVCAR-4 ovarian
[36] = tested on: OVCAR-5 ovarian
[37] = tested on: OVCAR-8 ovarian
[38] = tested on: PC-3 prostate
[39] = tested on: RPMI-8226 leukemia
[40] = tested on: RXF 393 renal
[41] = tested on: SF-268 CNS
[42] = tested on: SF-295 CNS
[43] = tested on: SF-539 CNS
[44] = tested on: SK-MEL-2 melanoma
[45] = tested on: SK-MEL-28 melanoma
[46] = tested on: SK-MEL-5 melanoma
[47] = tested on: SK-OV-3 ovarian
[48] = tested on: SN12C renal
[49] = tested on: SNB-19 CNS
[50] = tested on: SNB-75 CNS
[51] = tested on: SR leukemia
[52] = tested on: SW-620 colon
[53] = tested on: T-47D breast
[54] = tested on: TK-10 renal
[55] = tested on: U251 CNS
[56] = tested on: UACC-257 melanoma
[57] = tested on: UO-31 renal

CNC(=O)c1ccc(N2CCN(Cc3ccc4nc(C)c(=O)[nH]c4c3F)CC2)c(F)n1
> 100 µM: TGI [1] | TGI [2] | TGI [3] | TGI [4] | TGI [5] | TGI [6] | TGI [7] | TGI [8] | TGI [9] | TGI [10] | TGI [11] | TGI [12] | TGI [13] | TGI [14] | TGI [15] | TGI [16] | TGI [17] | TGI [18] | TGI [19] | TGI [20] | TGI [21] | TGI [22] | TGI [23] | TGI [24] | TGI [25] | TGI [26] | TGI [27] | TGI [28] | TGI [29] | TGI [30] | TGI [31] | TGI [32] | TGI [33] | TGI [34] | TGI [35] | TGI [36] | TGI [37] | TGI [38] | TGI [39] | TGI [41] | TGI [42] | TGI [43] | TGI [44] | TGI [45] | TGI [46] | TGI [47] | TGI [48] | TGI [49] | TGI [51] | TGI [52] | TGI [53] | TGI [54] | TGI [55] | TGI [56] | TGI [57]
63.8 µM: TGI [50]
62.5 µM: TGI [40]
inactive: GI50 [1] 47.4 µM | GI50 [2] > 100 µM | GI50 [3] > 100 µM | GI50 [4] > 100 µM | GI50 [5] 89.6 µM | GI50 [6] 49.4 µM | GI50 [7] > 100 µM | GI50 [8] > 100 µM | GI50 [9] > 100 µM | GI50 [10] 81.2 µM | GI50 [11] > 100 µM | GI50 [12] 91.4 µM | GI50 [13] > 100 µM | GI50 [14] > 100 µM | GI50 [15] 43.7 µM | GI50 [16] 21.3 µM | GI50 [17] 25.3 µM | GI50 [18] > 100 µM | GI50 [19] > 100 µM | GI50 [20] > 100 µM | GI50 [21] > 100 µM | GI50 [22] > 100 µM | GI50 [23] > 100 µM | GI50 [24] > 100 µM | GI50 [25] 65.9 µM | GI50 [26] 39.5 µM | GI50 [27] > 100 µM | GI50 [28] > 100 µM | GI50 [29] 44.9 µM | GI50 [30] 70.6 µM | GI50 [31] 73.8 µM | GI50 [32] 21.2 µM | GI50 [33] 78.8 µM | GI50 [34] > 100 µM | GI50 [35] > 100 µM | GI50 [36] > 100 µM | GI50 [37] 58.7 µM | GI50 [38] > 100 µM | GI50 [39] > 100 µM | GI50 [40] 13.1 µM | GI50 [41] 43.3 µM | GI50 [42] 48.5 µM | GI50 [43] 55.4 µM | GI50 [44] 76.2 µM | GI50 [45] > 100 µM | GI50 [46] 30.5 µM | GI50 [47] > 100 µM | GI50 [48] 57.7 µM | GI50 [49] 34.2 µM | GI50 [50] 16.4 µM | GI50 [51] 63.1 µM | GI50 [52] > 100 µM | GI50 [53] 53.5 µM | GI50 [54] 72.3 µM | GI50 [55] 36.5 µM | GI50 [56] > 100 µM | GI50 [57] > 100 µM

— PubChem BioAssay (NCI)
